The record followed here is patent US20140107021A1 (priority 2010, published 2014).

Series [1] addresses T1, glucagon receptor (Homo sapiens, UniProt P47871). Kind of series: cell-based. Conditions: Table J. The source says: (§1) HEK293 cells co-transfected with the receptor and luciferase gene linked to a cAMP responsive element were employed for the bioassay.
(§2) All EC50s and IC50s are reported in the following examples in nM, unless indicated otherwise.

The next series in a line: solubility at pH 6-8. Type of series: physicochemical.
Series [2] has as its target T1, glucagon receptor. Kind of series: glucagon receptor binding. More on the design: expressed in transfected cells; host or cells: HEK293. Conditions: read-out: IC50(nM) (Receptor binding).
For the next series, the target named is T2, GLP-1 receptor (Homo sapiens, UniProt P43220).
T2 construct: expressed in transfected cells; host or cells: HEK293
Kind of series: cAMP induction at the GLP-1 receptor (agonist activity), firefly luciferase reporter assay in HEK293 cells. Type of series: cell-based.
From the text: as §1, §2
On the technique in general: In a reporter assay the amount or activity of a reporter protein is the signal.

The next series has as its target T3, GIP receptor (Homo sapiens, UniProt P48546).
T3 construct: expressed in transfected cells; host or cells: HEK293
T3 sequence (P48546 22-466): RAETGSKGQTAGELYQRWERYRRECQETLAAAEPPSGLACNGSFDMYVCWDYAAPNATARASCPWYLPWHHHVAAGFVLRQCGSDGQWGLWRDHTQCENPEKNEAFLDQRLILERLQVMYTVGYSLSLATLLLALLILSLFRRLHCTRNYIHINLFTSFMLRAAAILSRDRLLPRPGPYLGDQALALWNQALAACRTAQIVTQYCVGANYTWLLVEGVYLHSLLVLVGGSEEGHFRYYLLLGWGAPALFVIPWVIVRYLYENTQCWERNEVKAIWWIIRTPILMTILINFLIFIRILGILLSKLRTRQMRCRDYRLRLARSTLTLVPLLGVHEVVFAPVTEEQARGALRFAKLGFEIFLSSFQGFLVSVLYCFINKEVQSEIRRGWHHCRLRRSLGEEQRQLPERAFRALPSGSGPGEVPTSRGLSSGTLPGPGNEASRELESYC
Kind of series: cAMP induction at the GIP receptor (agonist activity), luciferase reporter assay in HEK293 cells. Type of series: cell-based.
From the text: as §1, §2

A short description of series [3]: Example 8: acylated peptides injected subcutaneously daily for one week into DIO mice. Type of series: in vivo, DIO mice (C57Bl/6 WT). Conditions: 10 nmol/kg subcutaneously daily for one week. As for the experimental part: Different doses of acylated peptides comprising a Lys at position 16 and an AIB at position 20 were tested in vivo. […] The mice had been on a high fat diet diet for ˜8 months. Body weight and food intake were measured on days 0, 1, 3, 5, and 7, whereas blood glucose levels were measured on Days 0 and 7 of the experiment. Each test group and control group consisted of 8 mice.

The target of series [4] is T1, glucagon receptor. Kind of series: cAMP induction at the glucagon receptor (agonist activity), luciferase reporter assay in HEK293 cells. Set-up: expressed in transfected cells; host or cells: HEK293. Type of series: cell-based.
From the text: as §1, §2

Series [5] is classed as in vivo, C57Bl/6 mice. Conditions: 30 nmol/kg subcutaneously daily for one week.
The mark [6] stands for this setting: IC50(nM) (cAMP, inhibit Glucagon) 0.1 nM, inhibit 0.1 nM glucagon.
[7] abbreviates: Table 7, relative to the native ligand of the receptor.

Numbered stars: 1 amine (or outer) side, 2 acyl side, 3 side chain; on linkers, the order of the positions; unused ones are H or OH. Square brackets hold non-standard residues; d marks the D form. Side chains are listed from the residue outwards. Ends that are not written are not given here. Peptide text beside a SMILES is read from it. γGlu = O=C(O)[C@H](CCC(=O)[*:2])N[*:1]; C16 acyl = 16 carbon fatty acyl group; Aib = CC(C)(N)C(=O)O

T1 sequence (P47871 26-477): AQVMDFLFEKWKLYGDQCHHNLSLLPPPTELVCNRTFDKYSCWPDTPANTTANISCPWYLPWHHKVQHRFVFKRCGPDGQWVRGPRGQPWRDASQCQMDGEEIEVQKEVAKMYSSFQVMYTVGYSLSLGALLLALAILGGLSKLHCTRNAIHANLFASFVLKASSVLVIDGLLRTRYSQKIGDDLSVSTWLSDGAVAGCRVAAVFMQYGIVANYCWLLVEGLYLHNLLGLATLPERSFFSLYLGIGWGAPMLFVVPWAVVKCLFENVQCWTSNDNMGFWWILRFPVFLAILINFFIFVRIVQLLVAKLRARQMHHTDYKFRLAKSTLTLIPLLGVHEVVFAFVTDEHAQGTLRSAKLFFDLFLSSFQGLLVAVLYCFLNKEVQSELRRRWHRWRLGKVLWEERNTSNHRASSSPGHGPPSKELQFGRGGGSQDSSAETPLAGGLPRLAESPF
T2 sequence (P43220 24-463): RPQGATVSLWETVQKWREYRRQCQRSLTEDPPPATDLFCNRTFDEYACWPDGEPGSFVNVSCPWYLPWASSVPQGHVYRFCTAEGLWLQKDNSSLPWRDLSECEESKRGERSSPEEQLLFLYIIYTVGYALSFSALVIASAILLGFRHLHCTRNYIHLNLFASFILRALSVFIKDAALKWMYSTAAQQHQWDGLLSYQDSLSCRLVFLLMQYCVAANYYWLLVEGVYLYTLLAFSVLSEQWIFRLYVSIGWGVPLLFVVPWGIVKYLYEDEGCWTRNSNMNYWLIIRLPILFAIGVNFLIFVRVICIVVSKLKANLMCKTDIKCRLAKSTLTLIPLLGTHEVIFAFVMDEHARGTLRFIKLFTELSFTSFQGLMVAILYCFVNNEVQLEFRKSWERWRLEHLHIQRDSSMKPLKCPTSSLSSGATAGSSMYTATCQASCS

By IC50 is commonly meant the concentration needed to halve the response being measured. At glucagon receptor [1] (setting [6]), `CSCC[C@H](NC(=O)[C@H](CC(C)C)NC(=O)[C@H](Cc1c[nH]c2ccccc12)NC(=O)[C@H](CCC(N)=O)NC(=O)[C@@H](NC(=O)[C@H](Cc1ccccc1)NC(=O)[C@H](CC(=O)O)NC(=O)[C@H](CCC(N)=O)NC(=O)[C@H](C)NC(=O)[C@H](CCCNC(=N)N)NC(=O)[C@H](CCCNC(=N)N)NC(=O)[C@H](CO)NC(=O)[C@H](CC(=O)O)NC(=O)[C@H](CC(C)C)NC(=O)[C@H](Cc1ccc(O)cc1)NC(=O)[C@H](CCCCN)NC(=O)[C@H](CO)NC(=O)[C@H](Cc1ccc(O)cc1)NC(=O)[C@H](CC(=O)O)NC(=O)[C@H](CO)NC(=O)[C@@H](NC(=O)[C@@H](O)Cc1ccccc1)[C@@H](C)O)C(C)C)C(=O)N[C@@H](CC(N)=O)C(=O)N[C@H](C(=O)O)[C@@H](C)O` [[PLA6, D9]Glucagon(aa6-29)-COOH] (HELM PEPTIDE1{[O=C([C@@H](O)Cc1ccccc1)[*:2]].T.S.D.Y.S.K.Y.L.D.S.R.R.A.Q.D.F.V.Q.W.L.M.N.T}$$$$V2.0) displayed an IC50 of 13.2 nM. Further, the “Solubility (%, pH 6-8)” value in “solubility at pH 6-8” amounted to 96%.

As to `CSCC[C@H](NC(=O)[C@H](CC(C)C)NC(=O)[C@H](Cc1c[nH]c2ccccc12)NC(=O)[C@H](CCC(N)=O)NC(=O)[C@@H](NC(=O)[C@H](Cc1ccccc1)NC(=O)[C@H](CC(=O)O)NC(=O)[C@H](CCC(N)=O)NC(=O)[C@H](C)NC(=O)[C@H](CCCNC(=N)N)NC(=O)[C@H](CCCNC(=N)N)NC(=O)[C@H](CO)NC(=O)[C@H](CC(=O)O)NC(=O)[C@H](CC(C)C)NC(=O)[C@H](Cc1ccc(O)cc1)NC(=O)[C@H](CCCCN)NC(=O)[C@H](CO)NC(=O)[C@H](Cc1ccc(O)cc1)NC(=O)[C@H](CC(=O)O)NC(=O)[C@H](CO)NC(=O)[C@@H](NC(=O)[C@@H](O)Cc1ccccc1)[C@@H](C)O)C(C)C)C(=O)N[C@@H](CC(N)=O)C(=O)N[C@H](C(N)=O)[C@@H](C)O` [[PLA6, D9]Glucagon(aa6-29)-NH2] (HELM PEPTIDE1{[O=C([C@@H](O)Cc1ccccc1)[*:2]].T.S.D.Y.S.K.Y.L.D.S.R.R.A.Q.D.F.V.Q.W.L.M.N.T.[am]}$$$$V2.0), in “solubility at pH 6-8”, the “Solubility (%, pH 6-8)” value came to 11%. Besides, at glucagon receptor [2] (Table J), the IC50 stood at 13.9 ± 3.22 nM.

As for `CSCC[C@H](NC(=O)[C@H](CC(C)C)NC(=O)[C@H](Cc1c[nH]c2ccccc12)NC(=O)[C@H](CCC(N)=O)NC(=O)[C@@H](NC(=O)[C@H](Cc1ccccc1)NC(=O)[C@H](CC(=O)O)NC(=O)[C@H](CCC(N)=O)NC(=O)[C@H](C)NC(=O)[C@H](CCCNC(=N)N)NC(=O)[C@H](CCCNC(=N)N)NC(=O)[C@H](CO)NC(=O)[C@H](CC(=O)O)NC(=O)[C@H](CC(C)C)NC(=O)[C@H](Cc1ccc(O)cc1)NC(=O)[C@H](CCCCN)NC(=O)[C@H](CO)NC(=O)[C@H](Cc1ccc(O)cc1)NC(=O)[C@H](CCC(=O)O)NC(=O)[C@H](CO)NC(=O)[C@@H](NC(=O)[C@@H](O)Cc1ccccc1)[C@@H](C)O)C(C)C)C(=O)N[C@@H](CC(N)=O)C(=O)N[C@H](C(=O)NCC(=O)N1CCC[C@H]1C(=O)N[C@@H](CO)C(=O)N[C@@H](CO)C(=O)NCC(=O)N[C@@H](C)C(=O)N1CCC[C@H]1C(=O)N1CCC[C@H]1C(=O)N1CCC[C@H]1C(=O)N[C@@H](CO)C(N)=O)[C@@H](C)O` [[PLA6, E9]Glucagon (aa6-29 + CEX)-NH2] (HELM PEPTIDE1{[O=C([C@@H](O)Cc1ccccc1)[*:2]].T.S.E.Y.S.K.Y.L.D.S.R.R.A.Q.D.F.V.Q.W.L.M.N.T.G.P.S.S.G.A.P.P.P.S.[am]}$$$$V2.0), the results for the IC50 against glucagon receptor [1] (setting [6]) and on glucagon receptor [2] (Table J) were 24.8 nM and 40.3 ± 11.3 nM, respectively. In addition, in the series “solubility at pH 6-8”, the “Solubility (%, pH 6-8)” value is reported as 16%.

As for `CSCC[C@H](NC(=O)[C@H](CC(C)C)NC(=O)[C@H](Cc1c[nH]c2ccccc12)NC(=O)[C@H](CCC(N)=O)NC(=O)[C@@H](NC(=O)[C@H](Cc1ccccc1)NC(=O)[C@H](CC(=O)O)NC(=O)[C@H](CCC(N)=O)NC(=O)[C@H](C)NC(=O)[C@H](CCCNC(=N)N)NC(=O)[C@H](CCCNC(=N)N)NC(=O)[C@H](CO)NC(=O)[C@H](CC(=O)O)NC(=O)[C@H](CC(C)C)NC(=O)[C@H](Cc1ccc(O)cc1)NC(=O)[C@H](CCCCN)NC(=O)[C@H](CO)NC(=O)[C@H](Cc1ccc(O)cc1)NC(=O)[C@H](CCC(=O)O)NC(=O)[C@H](CO)NC(=O)[C@@H](NC(=O)[C@@H](O)Cc1ccccc1)[C@@H](C)O)C(C)C)C(=O)N[C@@H](CC(N)=O)C(=O)N[C@H](C(N)=O)[C@@H](C)O` [[PLA6, E9]Glucagon(aa6-29)-NH2] (HELM PEPTIDE1{[O=C([C@@H](O)Cc1ccccc1)[*:2]].T.S.E.Y.S.K.Y.L.D.S.R.R.A.Q.D.F.V.Q.W.L.M.N.T.[am]}$$$$V2.0), the IC50 at glucagon receptor [1] (setting [6]) was 2.39 nM; against glucagon receptor [1] (IC50(nM) (cAMP, inhibit Glucagon) 0.2 nM, inhibit 0.2 nM glucagon), 42.4 nM; at glucagon receptor [2] (Table J), 12.3 ± 2.24 nM; on glucagon receptor [2] (Table K) it was 12.3 ± 0.13 nM. Moreover, the “Solubility (%, pH 6-8)” value in “solubility at pH 6-8” is 11%.

For “Q3I7K16AIB20K10(rErE-C16) (Y[Aib]QGTFISDK([γGlu-γGlu-C16 acyl])SIYLDKQAA[Aib]EFVNWLLAGGPSSGAPPPS-NH2) [MT-385]”, in the series with GLP-1 receptor (setting [7]), the “% Relative Activity GLP-1R” value is 3%. Moreover, the “% Relative Activity at GIPR” value with GIP receptor (setting [7]) was 715%. The “total change in body weight (%)” value in series [3] is “lower change in body weight”. Further, the “% Relative Activity at GR” value with glucagon receptor [4] (setting [7]) is on record as 239%.

With “Y1Aib2I12K16Q17A18Aib20E21N24-LAG27-29-CEX-K (YXQGTFTSDYSIYLDKQAAXEFVNWLLAGGPSSGAPPPSK; HELM PEPTIDE1{Y.[Aib].Q.G.T.F.T.S.D.Y.S.I.Y.L.D.K.Q.A.A.[Aib].E.F.V.N.W.L.L.A.G.G.P.S.S.G.A.P.P.P.S.K.[am]}$$$$V2.0; N-terminus assumed; SMILES CC[C@H](C)[C@H](NC(=O)[C@H](CO)NC(=O)[C@H](Cc1ccc(O)cc1)NC(=O)[C@H](CC(=O)O)NC(=O)[C@H](CO)NC(=O)[C@@H](NC(=O)[C@H](Cc1ccccc1)NC(=O)[C@@H](NC(=O)CNC(=O)[C@H](CCC(N)=O)NC(=O)C(C)(C)NC(=O)[C@@H](N)Cc1ccc(O)cc1)[C@@H](C)O)[C@@H](C)O)C(=O)N[C@@H](Cc1ccc(O)cc1)C(=O)N[C@@H](CC(C)C)C(=O)N[C@@H](CC(=O)O)C(=O)N[C@@H](CCCCN)C(=O)N[C@@H](CCC(N)=O)C(=O)N[C@@H](C)C(=O)N[C@@H](C)C(=O)NC(C)(C)C(=O)N[C@@H](CCC(=O)O)C(=O)N[C@@H](Cc1ccccc1)C(=O)N[C@H](C(=O)N[C@@H](CC(N)=O)C(=O)N[C@@H](Cc1c[nH]c2ccccc12)C(=O)N[C@@H](CC(C)C)C(=O)N[C@@H](CC(C)C)C(=O)N[C@@H](C)C(=O)NCC(=O)NCC(=O)N1CCC[C@H]1C(=O)N[C@@H](CO)C(=O)N[C@@H](CO)C(=O)NCC(=O)N[C@@H](C)C(=O)N1CCC[C@H]1C(=O)N1CCC[C@H]1C(=O)N1CCC[C@H]1C(=O)N[C@@H](CO)C(=O)N[C@@H](CCCCN)C(N)=O)C(C)C) [MT-280]”, the “% Relative Activity GLP-1R” value with GLP-1 receptor (Table 8) is given as 225%. Moreover, the “% Relative Activity at GIPR” value with GIP receptor (Table 8) is reported as 154%. The “change in blood glucose levels over the course of the 7-day study” value in series [5] is recorded as “significant decrease in blood glucose levels”. The “% Relative Activity at GR” value in the series with glucagon receptor [4] (Table 8) worked out at 60%.
